These results are taken from patent US10774064B2 (Cadent Therapeutics, Inc., priority 2016, dated 2020).

The experiment deals with T1, small-conductance Ca2+-activated K+ channels (SK channels, subtype 2) (Homo sapiens, UniProt Q9H2S1).
T1 construct: expressed in transfected cells; host or cells: HEK293
Put plainly: whole-cell patch-clamp of ionic current through SK2 channels in HEK293 cells (SC100). The class given is cell-based. The note with it: concentration that increases the basal current by 100%; HEK293 cells expressing SK2 channels. The method in brief: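 SC100, the concentration doubling basal current (a 100% increase), was taken from SK2 currents recorded by whole-cell patch-clamp in SK2-expressing HEK293 cells.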

Regarding `COC(=O)N1CC(Oc2cc(NC3CCC(F)(F)CC3)nc(-n3ccc(C(F)F)n3)n2)C1` [Compound 295, methyl 3-((6-((4,4-difluorocyclohexyl)amino)-2-(3-(difluoromethyl)-1H-pyrazol-1-yl)pyrimidin-4-yl)oxy)azetidine-1-carboxylate], the SC100 result is given as “++ (++ means 200 nM-1000 nM)”. Turning to `CC(C)OC(=O)N1CC(Oc2cc(NC3CCC(F)(F)CC3)nc(-n3ccc(CF)n3)n2)C1` [Compound 296, isopropyl3-((6-((4,4-difluorocyclohexyl)amino)-2-(3-(fluoromethyl)-1H-pyrazol-1-yl)pyrimidin-4-yl)oxy)azetidine-1-carboxylate], the SC100 entry is “++ (++ means 200 nM-1000 nM)”. For `COC(=O)N1CCC(Oc2cc(NC3CCC(F)(F)CC3)nc(-n3ccc(CF)n3)n2)C1` (stereo not shown) [Compound 297, methyl 3-((6-((4,4-difluorocyclohexyl)amino)-2-(3-(fluoromethyl)-1H-pyrazol-1-yl)pyrimidin-4-yl)oxy)pyrrolidine-1-carboxylate], the SC100 result is listed as “++ (++ means 200 nM-1000 nM)”. With `CC(C)(C)C(=O)N1CC(Oc2cc(NC3CCC(F)(F)CC3)nc(-n3ccc(C(F)F)n3)n2)C1` [Compound 298, 1-(3-((6-((4,4-difluorocyclohexyl)amino)-2-(3-(difluoromethyl)-1H-pyrazol-1-yl)pyrimidin-4-yl)oxy)azetidin-1-yl)-2,2-dimethylpropan-1-one], the SC100 result is given as “++ (++ means 200 nM-1000 nM)”. For `O=C(N1CC(Oc2cc(NC3CCC(F)(F)CC3)nc(-n3ccc(C(F)F)n3)n2)C1)C(F)(F)F` [Compound 299, 1-(3-((6-((4,4-difluorocyclohexyl)amino)-2-(3-(difluoromethyl)-1H-pyrazol-1-yl)pyrimidin-4-yl)oxy)azetidin-1-yl)-2,2,2-trifluoroethan-1-one], the SC100 entry was “++ (++ means 200 nM-1000 nM)”. Next, `Cc1cc(C)n(Cc2cc(NC3CCC(F)(F)CC3)nc(-n3ccc(CF)n3)n2)n1` [Compound 300, N-(4,4-difluorocyclohexyl)-6-((3,5-dimethyl-1H-pyrazol-1-yl)methyl)-2-(3-(fluoromethyl)-1H-pyrazol-1-yl)pyrimidin-4-amine]: “+ (+ means >1 uM)”; `CC(=O)NCc1cc(NC2CCC(F)(F)CC2)nc(-n2ccc(C(F)F)n2)c1` [Compound 301, N-((2-((4,4-difluorocyclohexyl)amino)-6-(3-(difluoromethyl)-1H-pyrazol-1-yl)pyridin-4-yl)methyl)acetamide]: “++ (++ means 200 nM-1000 nM)”. Regarding `FCc1ccn(-c2cc(OC3COC3)cc(NC3CCC(F)(F)CC3)n2)n1` [Compound 302, N-(4,4-difluorocyclohexyl)-6-(3-(fluoromethyl)-1H-pyrazol-1-yl)-4-(oxetan-3-yloxy)pyridin-2-amine], the SC100 entry is “++ (++ means 200 nM-1000 nM)”. Next, `Cc1cn(-c2nc(NC3CCC(F)(F)CC3)cc(OC3COC3)n2)nc1CF` [Compound 304, N-(4,4-difluorocyclohexyl)-2-(3-(fluoromethyl)-4-methyl-1H-pyrazol-1-yl)-6-(oxetan-3-yloxy)pyrimidin-4-amine]: “++ (++ means 200 nM-1000 nM)”.

Regarding `COC(=O)N1CCC(Oc2cc(NC3CCC(F)(F)CC3)nc(-n3ccc(C(F)F)n3)n2)C1` (stereo not shown) [Compound 305, methyl 3-((6-((4,4-difluorocyclohexyl)amino)-2-(3-(difluoromethyl)-1H-pyrazol-1-yl)pyrimidin-4-yl)oxy)pyrrolidine-1-carboxylate], the SC100 entry is on record as “++ (++ means 200 nM-1000 nM)”. In the case of `COC(=O)N1CCC1COc1cc(NC2CCC(F)(F)CC2)nc(-n2ccc(CF)n2)n1` (stereo not shown) [Compound 306, methyl 2-(((6-((4,4-difluorocyclohexyl)amino)-2-(3-(fluoromethyl)-1H-pyrazol-1-yl)pyrimidin-4-yl)oxy)methyl)azetidine-1-carboxylate] it was “+ (+ means >1 uM)”; in that of `COC(=O)N1CC(Oc2cc(NC3CCC(F)(F)CC3)nc(-n3ccc(C(C)O)n3)n2)C1` (stereo not shown) [Compound 307, methyl 3-((6-((4,4-difluorocyclohexyl)amino)-2-(3-(1-hydroxyethyl)-1H-pyrazol-1-yl)pyrimidin-4-yl)oxy)azetidine-1-carboxylate], “+ (+ means >1 uM)”; in that of `CN(C)C(=O)C1CC1c1cc(NC2CCC(F)(F)CC2)nc(-n2ccc(CF)n2)n1` (stereo not shown) [Compound 308, 2-(6-((4,4-difluorocyclohexyl)amino)-2-(3-(fluoromethyl)-1H-pyrazol-1-yl)pyrimidin-4-yl)-N,N-dimethylcyclopropane-1-carboxamide], “+ (+ means >1 uM)”. In the case of `Cc1cn(-c2nc(NC3CCC(F)(F)CC3)cc(OC3CN(C(=O)C(C)(C)C)C3)n2)nc1CF` [Compound 309, 1-(3-((6-((4,4-difluorocyclohexyl)amino)-2-(3-(fluoromethyl)-4-methyl-1H-pyrazol-1-yl)pyrimidin-4-yl)oxy)azetidin-1-yl)-2,2-dimethylpropan-1-one] it was “++ (++ means 200 nM-1000 nM)”; in that of `COC(=O)N1CC(Oc2cc(NC3CCC(F)(F)CC3)nc(-n3cc(C)c(CF)n3)n2)C1` [Compound 310, methyl 3-((6-((4,4-difluorocyclohexyl)amino)-2-(3-(fluoromethyl)-4-methyl-1H-pyrazol-1-yl)pyrimidin-4-yl)oxy)azetidine-1-carboxylate], “++ (++ means 200 nM-1000 nM)”. For `CC(=O)NCc1cc(NC2CCC(F)(F)CC2)nc(-n2ccc(CF)n2)c1` [Compound 312, N-((2-((4,4-difluorocyclohexyl)amino)-6-(3-(fluoromethyl)-1H-pyrazol-1-yl)pyridin-4-yl)methyl)acetamide], the SC100 result is recorded as “++ (++ means 200 nM-1000 nM)”. Next, `COC(=O)N1CCC1COc1cc(NC2CCC(F)(F)CC2)nc(-n2ccc(C(F)F)n2)n1` (stereo not shown) [Compound 314, methyl 2-(((6-((4,4-difluorocyclohexyl)amino)-2-(3-(difluoromethyl)-1H-pyrazol-1-yl)pyrimidin-4-yl)oxy)methyl)azetidine-1-carboxylate]: “+ (+ means >1 uM)”. As to `CC(O)c1ccn(-c2nc(NC3CCC(F)(F)CC3)cc(OC3CN(C(=O)C(C)(C)C)C3)n2)n1` (stereo not shown) [Compound 315, 1-(3-((6-((4,4-difluorocyclohexyl)amino)-2-(3-(1-hydroxyethyl)-1H-pyrazol-1-yl)pyrimidin-4-yl)oxy)azetidin-1-yl)-2,2-dimethylpropan-1-one], the SC100 result is “+ (+ means >1 uM)”. In the case of `CC(C)(C)C(=O)N1CC(Oc2cc(NC3CCC(F)(F)CC3)nc(-c3nc(CF)cs3)n2)C1` [Compound 316, 1-(3-((6-((4,4-difluorocyclohexyl)amino)-2-(4-(fluoromethyl)thiazol-2-yl)pyrimidin-4-yl)oxy)azetidin-1-yl)-2,2-dimethylpropan-1-one] it was “+++ (+++ means <200 nM)”; in that of `Cc1cn(-c2nc(NC3CCC(F)(F)CC3)cc(OC3CN(C(=O)C(C)(C)C)C3)n2)nc1C(F)F` [Compound 317, 1-(3-((6-((4,4-difluorocyclohexyl)amino)-2-(3-(difluoromethyl)-4-methyl-1H-pyrazol-1-yl)pyrimidin-4-yl)oxy)azetidin-1-yl)-2,2-dimethylpropan-1-one], “+++ (+++ means <200 nM)”.

Regarding `COC(=O)N1CC(Oc2cc(NC3CCC(F)(F)CC3)nc(-n3cc(C)c(C(F)F)n3)n2)C1` [Compound 318, methyl 3-((6-((4,4-difluorocyclohexyl)amino)-2-(3-(difluoromethyl)-4-methyl-1H-pyrazol-1-yl)pyrimidin-4-yl)oxy)azetidine-1-carboxylate], the SC100 result is “++ (++ means 200 nM-1000 nM)”. `O=C(N1CC(Oc2cc(NC3CCC(F)(F)CC3)nc(-n3ccc(CO)n3)n2)C1)C(F)(F)F` [Compound 319, 1-(3-((6-((4,4-difluorocyclohexyl)amino)-2-(3-(hydroxymethyl)-1H-pyrazol-1-yl)pyrimidin-4-yl)oxy)azetidin-1-yl)-2,2,2-trifluoroethan-1-one]: the SC100 result is given as “+ (+ means >1 uM)”. Next, `Cc1csc(-c2nc(NC3CCC(F)(F)CC3)cc(N3CCOCC3)n2)n1` [Compound 320, N-(4,4-difluorocyclohexyl)-2-(4-methylthiazol-2-yl)-6-morpholinopyrimidin-4-amine]: “++ (++ means 200 nM-1000 nM)”; `O=C1CCCN1Cc1cc(NC2CCC(F)(F)CC2)nc(-n2ccc(CF)n2)n1` [Compound 321, 1-((6-((4,4-difluorocyclohexyl)amino)-2-(3-(fluoromethyl)-1H-pyrazol-1-yl)pyrimidin-4-yl)methyl)pyrrolidin-2-one]: “+ (+ means >1 uM)”. For the compound `CC(C)(C)C(=O)N1CC(Oc2cc(NC3CCC(F)(F)CC3)nc(-c3nc(C(F)(F)F)cs3)n2)C1` [Compound 322, 1-(3-((6-((4,4-difluorocyclohexyl)amino)-2-(4-(trifluoromethyl)thiazol-2-yl)pyrimidin-4-yl)oxy)azetidin-1-yl)-2,2-dimethylpropan-1-one], the SC100 entry was “++ (++ means 200 nM-1000 nM)”. Next, `O=C(N1CC(Oc2cc(NC3CCC(F)(F)CC3)nc(-c3nc(C(F)(F)F)cs3)n2)C1)C(F)(F)F` [Compound 323, 1-(3-((6-((4,4-difluorocyclohexyl)amino)-2-(4-(trifluoromethyl)thiazol-2-yl)pyrimidin-4-yl)oxy)azetidin-1-yl)-2,2,2-trifluoroethan-1-one]: “++ (++ means 200 nM-1000 nM)”.

Turning to `COC(=O)N1CC(Oc2cc(NC3CCC(F)(F)CC3)nc(-c3nc(C(F)(F)F)cs3)n2)C1` [Compound 324, methyl 3-((6-((4,4-difluorocyclohexyl)amino)-2-(4-(trifluoromethyl)thiazol-2-yl)pyrimidin-4-yl)oxy)azetidine-1-carboxylate], the SC100 result is “++ (++ means 200 nM-1000 nM)”. In the case of `CC(C)C1CC(=O)N1Cc1cc(NC2CCC(F)(F)CC2)nc(-n2ccc(CF)n2)n1` (stereo not shown) [Compound 325, 1-((6-((4,4-difluorocyclohexyl)amino)-2-(3-(fluoromethyl)-1H-pyrazol-1-yl)pyrimidin-4-yl)methyl)-4-isopropylazetidin-2-one] it was “+ (+ means >1 uM)”.
